Data taken from publication PMC5402281, “Functional, thermodynamics, structural and biological studies of in silico-identified inhibitors of Mycobacterium tuberculosis enoyl-ACP(CoA) reductase enzyme” (Scientific Reports, 2017).
Several values for one entry are separate records, joined by “and”; a condition that tells them apart may be missing. Equal values may be shown once. Read-outs that look alike come from different tables or passages of the source. Marks after values point to notes of the source that are not given here.

Assays:
in vitro [1] = type: cell-based, murine; details: mouse
Experimental: (§1) Cellular viability determination after incubation with the test compounds (Labio_16 and Labio_17) was performed essentially as described elsewhere. Briefly, Vero (and Hacat/RAW) cells were grown in DMEM media supplemented with 10% inactivated fetal bovine serum and 1% penicillin-streptomycin. The cells were maintained in culture bottles at 37 °C in humidified atmosphere with 5% CO2. Cells were seeded at 3 × 10^3 cells per well (for Hacat/RAW or Vero) in a 96-well microtiter plate and incubated for 24 hours to adhere. Medium was carefully aspirated and replaced with 90 μL DMEM, and 10 μL of stocks of the chemical compounds were added to a final concentration of 20 μM (DMSO 2.0%, v/v). After 72 h at 37 °C under 5% of CO2, the cultures were incubated with 3-(4,5-dimethylthiazol-2-yl)-2,5-diphenyltetrazolium bromide (MTT) (1 mg mL^−1) for 3 h. The formazan crystals were dried at room temperature for at least 24 h and dissolved in DMSO. The absorbance was measured at 595 nm (Spectra Max M2e, Molecular Devices, USA). The percentage of cell viability for treated groups was reported considering the control wells (DMSO 0.5%-treated) as 100% of cell viability: cell viability (%) = (absorbance of treated wells/absorbance of control wells) x 100. Data are expressed as mean of cell viability ± standard error of mean of three independent experiments performed in triplicate.

[2] = type: physicochemical
Experimental: An HPLC equipped with a quaternary pump, DAD detector, degasser, column oven and an automatic injection system was used in this set of experiments (Thermo® Scientific, Sunnyvale, USA). Stock standard solutions (1 M) of Labio_16 and Labio_17 were prepared by diluting each standard in DMSO. Standard solutions were prepared by diluting the stock solution in fish water, yielding final concentrations of 0.625, 1.25, 2.50, 5.0 and 10.0 μM for Labio_16; and 0.625, 1.25, 2.50, 5.0, 10.0 and 20 μM for Labio_17 in a final volume of 0.5 mL.
Chromatographic separations were carried out using a Nucleodur C-18 column at 20 °C. The mobile phase was a 20:80% mixture of 0.1% glacial acetic acid and acetonitrile:methanol 1:1 (v/v) for Labio_16, and a mixture of 20:80% of 20 mM of ammonium acetate and acetonitrile:methanol 1:1 (v/v) for Labio_17. A flow rate of 1.5 mL min^−1 was employed in isocratic mode, with run time of 7 minutes for Labio_16 and 12 minutes for Labio_17. The DAD detector was set at 300 nm and a full scan was continuously performed. The calibration curve for both analytes presented a correlation coefficient above 0.99.

in vitro [3] = type: cell-based
Experimental: as §1

M. tuberculosis H37Rv = test: microbe, parasite or virus in culture; type: cell-based; details: Mycobacterium tuberculosis
[4] = tested on: M. tuberculosis H37Rv in infected RAW 264.7 macrophages; test: Intracellular activity in M. tuberculosis-infected macrophages (CFU); type: cell-based, Mycobacterium tuberculosis; details: 5 μM; for Mean log CFU/well ± SEM: 5 days of incubation; for nature of intracellular activity (bactericidal / bacteriostatic): 5 days, vs early and late control
[5] = biological target: T1, MtInhA:NADH binary complex (Mycobacterium tuberculosis, UniProt P9WGR1); test: biochemical; type: binding; details: for ΔG: estimated from ΔH and ΔS (Eq. 7); for ΔH / ΔS: van't Hoff analysis, 15–30 °C
T1 construct: made in house

Zebrafish embryos = test: Zebrafish embryo toxicity: survival, hatching, heart frequency; type: in vivo, Danio rerio; details: for cardiotoxicity in the Zebrafish model: overall conclusion; for survival rate: treated from 2 hpf for 5 days, vs controls, Kaplan Meier
Experimental: Wild-type Zebrafish embryos were obtained from natural mating of adult Danio rerio bred[25] and maintained in an automated re-circulating tank system (Tecniplast, Italy). At 2 hpf (hours post fertilization) embryos were treated with different concentrations of compounds Labio_16 and Labio_17. Both compounds were diluted in DMSO for stock solutions of […] and diluted in fish water (Reverse Osmosis equilibrated with Instant Ocean Salt) to final concentrations of 1.0 μM, 3.5 μM and 7.0 μM (compound Labio_16) and 0.1 μM, 1.0 μM, 7.5 μM and 13.0 μM (compound Labio_17). Since both compounds were diluted first in DMSO, there were two control groups for each treatment, one only with fish water and the other one with the highest concentration of DMSO used in the treatments (0.035% for Labio_16 treatment and 0.065% for Labio_17 treatment).
Embryos were maintained in a 96 well plate during the 5 days of treatment inside an incubator with light-dark cycle of 14–10 hours and controlled temperature (28 °C)[25]. The solution pH and conductivity were monitored. Survival and hatching efficiency were accompanied under a stereomicroscope (OlympusSZ4045) every day, as well as developmental toxicity. Data for survival evaluation were analysed by Kaplan Meier survival test.
At 2 dpf (days post fertilization) and 5 dpf embryos heart frequency were quantified. For this, a single embryo per larvae was placed under a stereomicroscope (OlympusSZ4045) in petri-dishes with system water and their heart rate was monitored for 60 seconds by a blind experimenter (N = 10 in triplicates)[25][26]. For all procedures, temperature was kept constant at 28 °C. Data were analysed using One-way ANOVA, followed by Tukey multiple comparisons test.

[6] = 216 h, 7 days + 48 h resazurin, read-out: MIC H37Rv
[7] = conversion of μg mL^−1 value, read-out: MIC H37Rv converted to

T1 sequence (P9WGR1 whole entry, looked up, one chain of several): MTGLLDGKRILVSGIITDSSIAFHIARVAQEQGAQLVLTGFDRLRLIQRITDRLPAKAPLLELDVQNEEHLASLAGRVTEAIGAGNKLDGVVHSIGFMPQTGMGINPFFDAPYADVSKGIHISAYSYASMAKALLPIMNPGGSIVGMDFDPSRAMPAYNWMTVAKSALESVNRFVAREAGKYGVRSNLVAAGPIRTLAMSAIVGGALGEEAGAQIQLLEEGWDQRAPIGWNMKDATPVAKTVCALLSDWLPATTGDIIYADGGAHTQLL

Structure (SMILES) | viability at 72 h, 20 µM (in vitro [1]) | decrease in compound concentration in stability test [2] | viability at 72 h, 20 µM (in vitro [3]; African green monkey) | viability at 72 h, 20 µM (in vitro [3]; human) | MIC (M. tuberculosis H37Rv; [6]) | MIC (M. tuberculosis H37Rv; [7]) | Mean log CFU/well ± SEM [4] | nature of intracellular activity (bactericidal / bacteriostatic) [4] | Kd ([5]; 25 °C (298.15 K)) | ΔG [5] | ΔH [5] | ΔS [5] | cardiotoxicity in the Zebrafish model (Zebrafish embryos) | survival rate (Zebrafish embryos) | also measured
Cc1ccccc1OCc1nc(-c2ccc(NC(=O)c3cccs3)cc2)no1 [Labio_16] | 91 ± 1% | 21% | 89 ± 12% | 104 ± 12% | 2.5 µg/mL | 6.4 µM | 3.9 ± 0.1 log CFU/well | bacteriostatic | 1500 ± 200 nM | -8.0 kcal/mol and -8.0 ± 3.6 kcal/mol | -9.4 kcal/mol and -9.4 ± 06 kcal/mol | −4.8 cal.mol^−1.K^−1 and −4.8 ± 2.2 cal.mol^−1.K^−1 | no cardiotoxicity | statistical difference | Kd ([5]; 15 °C): 900 ± 200 nM; Kd ([5]; 20 °C): 1200 ± 100 nM; Kd ([5]; 30 °C): 2000 ± 100 nM; heart frequency at 5 dpf (Zebrafish embryos; 3.5 μM and 7.0 μM against DMSO control): a decrease in the heart rate; hatching efficiency (Zebrafish embryos; 1.0, 3.5, 7.0 μM vs controls): No difference; heart frequency at 2 dpf (Zebrafish embryos; all groups, one-way ANOVA): no difference
CCOC(=O)c1ccc2nc(C)cc(Nc3ccc(N4CCCCC4)cc3)c2c1 [Labio_17] | 98 ± 2% | 21% | 85 ± 8% | 84 ± 14% | 5 µg/mL | 12.8 µM | 3.4 ± 0.1***^++ log CFU/well | bactericidal | 7200 ± 500 nM | -7.1 ± 0.8 kcal/mol | -23.3 ± 1.9 kcal/mol | −54.5 ± 6.5 cal.mol^−1.K^−1 | signs of cardiotoxicity | dose-dependent statistical difference | heart frequency at 5 dpf (Zebrafish embryos; 0.1 μM and 1.0 μM against H2O control): no difference; heart frequency at 5 dpf (Zebrafish embryos; 1.0 μM compared to DMSO control): no difference; hatching efficiency (Zebrafish embryos; two highest concentrations, 13.0 μM and 7.5 μM): delayed hatching efficiency
